Source: paper PMC3508718 (Clinical pharmacokinetics, 2012)
Where two headings read alike, the source gives them in different places. One block for each compound: values may come before it.

Columns and labels:
[1] = female, human, in vivo
[2] = tested on: wild-type HIV virus; settings: cited from earlier work
[3] = Model-predicted AUCτ in BP and CVF and CVF:BP AUC ratios; assay type: in vivo, HIV-infected pre-menopausal women
[4] = non-compartmental analysis; ref [13]; cited from earlier work
[5] = Population pharmacokinetic co-modelling of blood plasma; settings: female, human
[6] = cited from earlier work
[7] = female, human, in vivo, CVF AUCτ:BP AUCτ ratio
[8] = female, human, in vivo, CVF AUCτ:BP fAUCτ ratio
[9] = first dose, median (25th, 75th percentiles), model-predicted
[10] = multiple dose, median (25th, 75th percentiles), model-predicted

Compound: COC(=O)N[C@H](C(=O)N[C@@H](Cc1ccccc1)[C@@H](O)CN(Cc1ccc(-c2ccccn2)cc1)NC(=O)[C@@H](NC(=O)OC)C(C)(C)C)C(C)(C)C [Atazanavir, atazanavir]
ka,FD (first-order absorption rate constant, first dose) [1]: 0.879 (79.5) [29.0] h^−1 | tauFD (transit compartment transfer rate constant BP to CVF, first dose) [1]: 0.773 (145) [52.8] h^−1 | tauMD (transit compartment transfer rate constant BP to CVF, multiple dose) [1]: 1.41 (216) [85.2] h^−1 | IC50 (concentration producing 50 % inhibition of wild-type HIV virus) ([2]; ref [15]): 11 ng/mL | AUC ([3]; female, human, in vivo, BP AUCτ, first dose, median (25th, 75th percentiles), model-predicted): 25.3 ng·h/mL | AUC ([3]; female, human, in vivo, BP AUCτ, multiple dose, median (25th, 75th percentiles), model-predicted): 54.6 ng·h/mL | AUC ([3]; female, human, in vivo, CVF AUCτ, first dose, median (25th, 75th percentiles), model-predicted): 5.66 ng·h/mL | AUC ([3]; female, human, in vivo, CVF AUCτ, multiple dose, median (25th, 75th percentiles), model-predicted): 5.53 ng·h/mL | Kp [3, 7]: 0.299 | Kp [3, 8]: 2.14 | BP fAUCτ (unbound) [3, 9]: 3.55 (0.867, 6.15) μg•h/L | BP fAUCτ (unbound) [3, 10]: 7.64 (1.61, 9.54) μg•h/L | penetration / exposure in CVF relative to BP (in words) [4]: moderately penetrative | Vd ([5]; in vivo): 10.4 L

Compound: O=C1Nc2ccc(Cl)cc2[C@@](C#CC2CC2)(C(F)(F)F)O1 [Efavirenz, efavirenz]
ka,FD (first-order absorption rate constant, first dose) [1]: 1.75 (52.7) [18.9] h^−1 | ka,MD (first-order absorption rate constant, multiple dose) [1]: 0.945 (139) [54.0] h^−1 | tauFD (transit compartment transfer rate constant BP to CVF, first dose) [1]: 0.866 (208) [77.5] h^−1 | tauMD (transit compartment transfer rate constant BP to CVF, multiple dose) [1]: 0.383 (156) [55.8] h^−1 | IC50 (concentration producing 50 % inhibition of wild-type HIV virus) ([2]; ref [36]): 0.51 ng/mL | estimated fu (protein-unbound fraction in blood) ([6]; used in the model to control drug transfer into CVF, ref [14]–[17]): 0.01 | AUC ([3]; female, human, CVF, oral, CVF AUCτ, multiple dose, median (25th, 75th percentiles), model-predicted): 0.262 ng·h/mL | AUC ([3]; female, human, cervicovaginal fluid, oral, CVF AUCτ, first dose, median (25th, 75th percentiles), model-predicted): 0.0127 ng·h/mL | CVF AUCτ:BP fAUCτ ratio ([3]; female, human, in vivo): 0.527 (0.298, 1.28) | Kp [3, 7]: 0.00527 | AUC ([3]; female, human, plasma, oral, BP AUCτ, first dose, median (25th, 75th percentiles), model-predicted): 24.5 ng·h/mL | AUC ([3]; female, human, plasma, oral, BP AUCτ, multiple dose, median (25th, 75th percentiles), model-predicted): 46.7 ng·h/mL | BP fAUCτ (unbound) [3, 9]: 0.245 (0.161, 0.303) μg•h/L | BP fAUCτ (unbound) [3, 10]: 0.470 (0.339, 1.06) μg•h/L | penetration / exposure in CVF relative to BP (in words) [4]: very low penetration into CVF | Vd ([5]; cervicovaginal fluid, oral): 2.55 L

CVF AUCτ ([3]; female, human, in vivo, 150 mg): 10.0 (6.07, 48.9) μg•h/L | AUC ([3]; female, human, in vivo, 150 mg, BP AUCτ): 3.86 ng·h/mL | AUC ([3]; female, human, in vivo, 300 mg, BP AUCτ): 10.1 ng·h/mL | AUC ([3]; female, human, in vivo, 300 mg, CVF AUCτ): 62.2 ng·h/mL
Compound: Nc1ccn([C@@H]2CS[C@H](CO)O2)c(=O)n1 [Lamivudine, lamivudine]
protein binding ([6]; ref [17]): 40%

ka,FD (first-order absorption rate constant, first dose) [1]: 1.72 (61.1) [99.8] h^−1 | ka,MD (first-order absorption rate constant, multiple dose) [1]: 1.05 (69.8) [30.0] h^−1 | kg12 (transfer rate constant from CVF compartment 1 to 2) [1]: 0.525 (203) [63.6] h^−1 | kg21 (transfer rate constant from CVF compartment 2 to 1) [1]: 0.323 (97.6) [60.7] h^−1 | tauFD (transit compartment transfer rate constant BP to CVF, first dose) [1]: 1.53 (106) [71.1] h^−1 | tauMD (transit compartment transfer rate constant BP to CVF, multiple dose) [1]: 1.24 (103) [130] h^−1 | BP fAUCτ (unbound) ([3]; female, human, in vivo): 2.38 (1.59, 4.35) μg•h/L | AUC ([3]; female, human, in vivo, BP AUCτ): 2.56 ng·h/mL | AUC ([3]; female, human, in vivo, CVF AUCτ): 4.18 ng·h/mL | Kp [3, 7]: 1.57 | Kp [3, 8]: 1.68
Compound: C[C@H](Cn1cnc2c(N)ncnc21)OCP(=O)(O)O [Tenofovir, tenofovir]
protein binding ([6]; ref [16]): < 7%
